Measurements reported in US20070122859A1, “Immunoassay for LSD and 2-oxo-3-hydroxy-LSD” (priority 2000, published 2007).
Read-outs that look alike come from different tables or passages of the source.

Legend:
[1] = test system: Clone 1.1; assay: ELISA antibody cross-reactivity, Clone 1.1; assay type: binding, mouse
Description: (§1) Cross-reactivity of three clones for LSD, nor-LSD and 2-oxo-3-hydroxy-LSD was determined using an ELISA technique. Microtiter plates were coated with 100 μl of 0.325 mg/ml LSD-BSA or 100 μl of 0.325 mg/ml 2-oxo-3-hydroxy-LSD-BSA for 1 hour at 37° C. and post-blocked with 200 μl of 1% BSA in PBS for 1 hour at room temperature. Plates were washed 3 times with 400 μl of PBS-0.1% TWEEN-20. Free LSD, nor-LSD and 2-oxo-3-hydroxy-LSD were diluted to 1000 ng/ml in PBS. Antibody was diluted 8,000 fold. Drug solutions, 200 μl of 1000 ng/ml, solutions were dispensed into the first column of an ELISA plate. The rest of the wells were filled with 100 μl of PBS. Serial dilutions of the drugs were prepared by taking 100 μl of the drug solution out of the first column and dispensing it into the second column of the plate. Contents of the wells were mixed thoroughly by pipetting the solution up and down 5 times. 100 μl out of the second column was dispensed into the third column and mixed as above. The process was repeated for all 12 columns of ELISA plates. 100 μl of solution out of the last wells was discarded. 100 μl of antibody diluted 8,000 fold was added to each well. Resulting concentrations of the drug were 500 ng/ml, 250 ng/ml, 125 ng/ml, 62.5 ng/ml, 31.2 ng/ml, 15.6 ng/ml, 7.81 ng/ml, 3.90 ng/ml, 1.95 ng/ml, 0.976 ng/ml, 0.488 ng/ml, 0.244 ng/ml. Final antibody dilution was 16,000 fold. Plates were incubated for 1 hour at 37° C. and washed 3 times with PBS-TWEEN-20. Rabbit anti-mouse HRP conjugated IgG was diluted 5,000 fold and 100 μl were added to ELISA plates. The plates were incubated for 1 hour at 37° C. and washed 3 times with PBS-TWEEN-20. 100 μl of K-BLUE substrate was dispensed into each well. Plates were incubated for 30 min at room temperature in the dark. The reaction was stopped with 100 μl of 2 M H3PO4, and absorbance was read at 450 nm.

[2] = test system: Clone 2.1; assay: ELISA antibody cross-reactivity, Clone 2.1; assay type: binding, mouse
Description: as §1

[3] = test system: Clone 20.2; assay: ELISA antibody cross-reactivity, Clone 20.2; assay type: binding, mouse
Description: as §1

[4] = test system: antibodies specific for LSD; conditions: EMIT (Syva Company) immunoassay; cited from earlier work
[5] = test system: antibodies specific for LSD; conditions: CEDIA (Microgenics Corporation) immunoassay; cited from earlier work
[6] = test system: antibodies specific for LSD; conditions: KIMS (Roche Diagnostics) immunoassay; cited from earlier work
[7] = cited from earlier work
[8] = Dilution 0.2 (free drug 0.244 ng/ml)
[9] = Dilution 0.5 (free drug 0.488 ng/ml)
[10] = Dilution 1.0 (free drug 0.976 ng/ml)
[11] = Dilution 2.0 (free drug 1.95 ng/ml)
[12] = Dilution 3.9 (free drug 3.90 ng/ml)
[13] = Dilution 7.8 (free drug 7.81 ng/ml)
[14] = Dilution 15.6 (free drug 15.6 ng/ml)
[15] = Dilution 31.3 (free drug 31.2 ng/ml)
[16] = Dilution 62.5 (free drug 62.5 ng/ml)
[17] = Dilution 125.0 (free drug 125 ng/ml)
[18] = Dilution 250.0 (free drug 250 ng/ml)
[19] = Dilution 500.0 (free drug 500 ng/ml)
[20] = based upon specificity to 2-oxo-3-hydroxy-LSD

Question: Which A450 [1, 8] does the source give for CCN(CC)C(=O)[C@@H]1C=C2c3cccc4c3C(O)(C[C@H]2N(C)C1)C(=O)N4 (stereo partly drawn) [2-oxo-3-hydroxy-LSD, 2-oxo-3-hydroxy-d-lysergic acid diethylamide] here?
Answer: 3.913

Question: And the A450 [1, 9]?
Answer: 3.928

Question: And the A450 [1, 10]?
Answer: 4.033

Question: And the A450 [1, 11]?
Answer: 4.015

Question: What about the A450 [1, 12] of the same compound?
Answer: 3.908

Question: What about the A450 [1, 13] of the same compound?
Answer: 3.914

Question: And the A450 [1, 14]?
Answer: 3.310

Question: What about the A450 [1, 15] of the same compound?
Answer: 3.108

Question: What about the A450 [1, 16] of the same compound?
Answer: 2.278

Question: And the A450 [1, 17]?
Answer: 1.768

Question: And the A450 [1, 18]?
Answer: 1.425

Question: And the A450 [1, 19]?
Answer: 0.871

Question: And the Calculated percentage cross-reactivity [1, 20]?
Answer: 100.0%

Question: What about the Calculated percentage cross-reactivity ([1]; based upon specificity to LSD) of the same compound?
Answer: 133.6%

Question: And the A450 [2, 8]?
Answer: 0.846

Question: What about the A450 [2, 9] of the same compound?
Answer: 0.690

Question: And the A450 [2, 10]?
Answer: 0.552

Question: And the A450 [2, 11]?
Answer: 0.531

Question: What about the A450 [2, 12] of the same compound?
Answer: 0.372

Question: What about the A450 [2, 13] of the same compound?
Answer: 0.321

Question: And the A450 [2, 14]?
Answer: 0.294

Question: And the A450 [2, 15]?
Answer: 0.309

Question: And the A450 [2, 16]?
Answer: 0.243

Question: And the A450 [2, 17]?
Answer: 0.256

Question: What about the A450 [2, 18] of the same compound?
Answer: 0.297

Question: What about the A450 [2, 19] of the same compound?
Answer: 0.243

Question: What about the Calculated percentage cross-reactivity [2, 20] of the same compound?
Answer: 100.0%

Question: What about the Calculated percentage cross-reactivity ([2]; based upon specificity to LSD) of the same compound?
Answer: 131.4%

Question: What about the A450 [3, 8] of the same compound?
Answer: 0.838

Question: And the A450 [3, 9]?
Answer: 0.704

Question: What about the A450 [3, 10] of the same compound?
Answer: 0.430

Question: And the A450 [3, 11]?
Answer: 0.372

Question: What about the A450 [3, 12] of the same compound?
Answer: 0.316

Question: And the A450 [3, 13]?
Answer: 0.272

Question: What about the A450 [3, 14] of the same compound?
Answer: 0.220

Question: What about the A450 [3, 15] of the same compound?
Answer: 0.148

Question: And the A450 [3, 16]?
Answer: 0.142

Question: What about the A450 [3, 17] of the same compound?
Answer: 0.143

Question: What about the A450 [3, 18] of the same compound?
Answer: 0.144

Question: What about the A450 [3, 19] of the same compound?
Answer: 0.142

Question: And the Calculated percentage cross-reactivity [3, 20]?
Answer: 100.0%

Question: And the Calculated percentage cross-reactivity ([3]; based upon specificity to LSD)?
Answer: 118.5%

Question: And the cross-reactivity [4]?
Answer: 1.7%

Question: And the cross-reactivity [5]?
Answer: 1.8%

Question: And the cross-reactivity [6]?
Answer: 11%

Question: And the “time detectable after ingestion of the drug” value ([7]; urine, compared with LSD)?
Answer: can be detected for a longer time than LSD

Question: Which A450 [1, 8] does the source give for CCN(CC)C(=O)[C@@H]1C=C2c3cccc4[nH]cc(c34)C[C@H]2N(C)C1 [LSD, 9,10-didehydro-N,N-diethyl-6-methylergoline-8β-carboxamide] here?
Answer: 3.797

Question: What about the A450 [1, 9] of the same compound?
Answer: 4.085

Question: And the A450 [1, 10]?
Answer: 3.962

Question: And the A450 [1, 11]?
Answer: 3.905

Question: And the A450 [1, 12]?
Answer: 3.951

Question: What about the A450 [1, 13] of the same compound?
Answer: 3.831

Question: And the A450 [1, 14]?
Answer: 3.519

Question: And the A450 [1, 15]?
Answer: 3.390

Question: And the A450 [1, 16]?
Answer: 2.633

Question: And the A450 [1, 17]?
Answer: 2.050

Question: And the A450 [1, 18]?
Answer: 1.433

Question: And the A450 [1, 19]?
Answer: 0.831

Question: What about the Calculated percentage cross-reactivity [1, 20] of the same compound?
Answer: 74.9%

Question: What about the Calculated percentage cross-reactivity ([1]; based upon specificity to LSD) of the same compound?
Answer: 100.0%

Question: What about the A450 [2, 8] of the same compound?
Answer: 0.831

Question: And the A450 [2, 9]?
Answer: 0.738

Question: And the A450 [2, 10]?
Answer: 0.579

Question: What about the A450 [2, 11] of the same compound?
Answer: 0.523

Question: And the A450 [2, 12]?
Answer: 0.435

Question: What about the A450 [2, 13] of the same compound?
Answer: 0.339

Question: And the A450 [2, 14]?
Answer: 0.303

Question: And the A450 [2, 15]?
Answer: 0.294

Question: And the A450 [2, 16]?
Answer: 0.252

Question: What about the A450 [2, 17] of the same compound?
Answer: 0.240

Question: And the A450 [2, 18]?
Answer: 0.234

Question: And the A450 [2, 19]?
Answer: 0.236

Question: What about the Calculated percentage cross-reactivity [2, 20] of the same compound?
Answer: 76.1%

Question: What about the Calculated percentage cross-reactivity ([2]; based upon specificity to LSD) of the same compound?
Answer: 100.0%

Question: And the A450 [3, 8]?
Answer: 0.833

Question: What about the A450 [3, 9] of the same compound?
Answer: 0.658

Question: And the A450 [3, 10]?
Answer: 0.587

Question: What about the A450 [3, 11] of the same compound?
Answer: 0.328

Question: What about the A450 [3, 12] of the same compound?
Answer: 0.284

Question: What about the A450 [3, 13] of the same compound?
Answer: 0.204

Question: And the A450 [3, 14]?
Answer: 0.160

Question: What about the A450 [3, 15] of the same compound?
Answer: 0.126

Question: What about the A450 [3, 16] of the same compound?
Answer: 0.126

Question: What about the A450 [3, 17] of the same compound?
Answer: 0.124

Question: And the A450 [3, 18]?
Answer: 0.188

Question: And the A450 [3, 19]?
Answer: 0.122

Question: And the Calculated percentage cross-reactivity [3, 20]?
Answer: 84.4%

Question: What about the Calculated percentage cross-reactivity ([3]; based upon specificity to LSD) of the same compound?
Answer: 100.0%

Question: And the “parent drug excreted in human urine” value ([7]; human urine)?
Answer: about 1%

Question: For CCN(CC)C(=O)[C@@H]1C=C2c3cccc4[nH]cc(c34)C[C@H]2NC1 [nor-LSD, N-desmethyl-LSD], which A450 [1, 8] is on record?
Answer: 4.019

Question: What about the A450 [1, 9] of the same compound?
Answer: 4.074

Question: What about the A450 [1, 10] of the same compound?
Answer: 4.100

Question: What about the A450 [1, 11] of the same compound?
Answer: 3.884

Question: And the A450 [1, 12]?
Answer: 4.035

Question: And the A450 [1, 13]?
Answer: 3.805

Question: And the A450 [1, 14]?
Answer: 3.740

Question: And the A450 [1, 15]?
Answer: 3.735

Question: And the A450 [1, 16]?
Answer: 3.601

Question: What about the A450 [1, 17] of the same compound?
Answer: 3.512

Question: And the A450 [1, 18]?
Answer: 3.340

Question: And the A450 [1, 19]?
Answer: 2.968

Question: And the Calculated percentage cross-reactivity [1, 20]?
Answer: 1.9%

Question: And the Calculated percentage cross-reactivity ([1]; based upon specificity to LSD)?
Answer: 2.6%

Question: What about the A450 [2, 8] of the same compound?
Answer: 0.900

Question: What about the A450 [2, 9] of the same compound?
Answer: 0.859

Question: What about the A450 [2, 10] of the same compound?
Answer: 0.842

Question: What about the A450 [2, 11] of the same compound?
Answer: 0.792

Question: And the A450 [2, 12]?
Answer: 0.786

Question: And the A450 [2, 13]?
Answer: 0.696

Question: What about the A450 [2, 14] of the same compound?
Answer: 0.648

Question: And the A450 [2, 15]?
Answer: 0.504

Question: And the A450 [2, 16]?
Answer: 0.444

Question: What about the A450 [2, 17] of the same compound?
Answer: 0.384

Question: And the A450 [2, 18]?
Answer: 0.318

Question: And the A450 [2, 19]?
Answer: 0.276

Question: What about the Calculated percentage cross-reactivity [2, 20] of the same compound?
Answer: 1.8%

Question: And the Calculated percentage cross-reactivity ([2]; based upon specificity to LSD)?
Answer: 2.3%

Question: What about the A450 [3, 8] of the same compound?
Answer: 0.908

Question: And the A450 [3, 9]?
Answer: 0.866

Question: And the A450 [3, 10]?
Answer: 0.853

Question: What about the A450 [3, 11] of the same compound?
Answer: 0.799

Question: And the A450 [3, 12]?
Answer: 0.722

Question: What about the A450 [3, 13] of the same compound?
Answer: 0.656

Question: What about the A450 [3, 14] of the same compound?
Answer: 0.584

Question: What about the A450 [3, 15] of the same compound?
Answer: 0.464

Question: What about the A450 [3, 16] of the same compound?
Answer: 0.416

Question: What about the A450 [3, 17] of the same compound?
Answer: 0.292

Question: And the A450 [3, 18]?
Answer: 0.228

Question: What about the A450 [3, 19] of the same compound?
Answer: 0.288

Question: And the Calculated percentage cross-reactivity [3, 20]?
Answer: 4.6%

Question: And the Calculated percentage cross-reactivity ([3]; based upon specificity to LSD)?
Answer: 5.5%
